{"source": "patent US20070071778A1", "about": "(ISP INVESTMENTS INC., priority 2005, published 2007)", "system": "mixed fungal inoculum (Aspergillus niger, Penicillium funiculosum and Stachybotrys chartarum)", "assay": "Fungicidal efficacy on water saturated gypsum boards", "format": "cell-based", "set-up": "key: Presence (+); Absence (−) of Fungal Growth", "settings": "gypsum board, 1,000 ppm triclosan, 28° C., 80% RH, 30-45 days", "procedure": "The compositions of Example 9 were diluted to 1,000 ppm of triclosan. Then both sides of a gypsum board (cream and grey) sample (2×2×½ in.) were brush coated with each formulation and allowed to dry for 24 hours. The Controls were gypsum boards treated with only water or with only 1,000 ppm of triclosan in dimethyl sulfamide. The treated gypsum boards were then placed on a Petri dish and water was added to saturate the board. The water saturated gypsum boards were then inoculated with a mixed fungal inoculum (Aspergillus niger, Penicillium funiculosum and Stachybotrys chartarum) containing ca. 10^5 spores/ml. The samples were incubated at 28° C., 80% RH for 30-45 days and rated for the presence or absence of fungal growth thereon. Samples showing no growth were re-inoculated and incubated for another 30-45 days.", "data": [{"smiles": "Oc1cc(Cl)ccc1Oc1ccc(Cl)cc1Cl", "note": "[Triclosan, triclosan]", "values": [{"measurement": "Presence (+)/Absence (−) of Fungal Growth, Cream Side", "result": "+"}, {"measurement": "Presence (+)/Absence (−) of Fungal Growth, Grey Side", "result": "+"}]}]}
